The target in one assay is T1, IDH1R132L_G131A cis (Homo sapiens, UniProt O75874, G131A/R132L).
T1 construct: expressed in transfected cells; host or cells: U-87 MG (ATCC HTB-14)
Nature of the assay: 2-HG cell-based inhibition assay, U87MG IDH1R132L_G131A cis. As to conditions: Cell line construct U87MG IDH1R132L_G131A cis; 2-HG by LC-MS. As for the experimental part: (§1) Compounds and Formulation. […] DMSO preps are further diluted with cell culture media prior to addition in the assay.
(§2) Cell lines. U-87 MG cells (ATCC, HTB-14) are cultured and assayed in MEM (Gibco, 11095) with 2 mM GlutaMAX (Gibco, 35050), 1 mM Pyruvate (Gibco, 11360), 0.1 mM NEAA ((Non-essential amino acid) Gibco, 11140) and 10% dialyzed FBS (Fetal bovine serum) (Gibco, 26400). Ba/F3 cells (DSMZ, ACC 300) are cultured and assayed in RPMI 1640 (Gibco, 22400) with 10% heat inactivated FBS (Gibco, 10082-147) and 10 ng/ml mouse IL3 (R&D systems, 403-ML-025).
(§3) Cell-based inhibition assays. Cell-based assays are performed by measuring 2-HG in either U-87 MG cells or Ba/F3 cells in which IDH mutations are expressed.
(§4) DNA constructs encoding IDH1 mutations are introduced into U-87 MG cells using transfection (Promega FuGENE HD, E2311) or lentiviral transduction, and the IDH-mutant expressing cell lines are selected using blasticidin (5 μg/ml) or puromycin (1 μg/ml). […]
(§5) LC-MS metabolite analysis of conditioned media and cell lysates. The effect of inhibitors on the concentrations of 2-HG are determined by liquid chromatography-mass spectrometry (LC-MS) analysis of cell lysates or conditioned media using either a derivatization method or an ion-pairing method as described below. […]

A further assay deals with T2, IDH1R132L_R119P cis (Homo sapiens, UniProt O75874, R119P/R132L).
T2 construct: expressed in transfected cells; host or cells: U-87 MG (ATCC HTB-14)
T2 sequence (O75874 whole entry R119P/R132L): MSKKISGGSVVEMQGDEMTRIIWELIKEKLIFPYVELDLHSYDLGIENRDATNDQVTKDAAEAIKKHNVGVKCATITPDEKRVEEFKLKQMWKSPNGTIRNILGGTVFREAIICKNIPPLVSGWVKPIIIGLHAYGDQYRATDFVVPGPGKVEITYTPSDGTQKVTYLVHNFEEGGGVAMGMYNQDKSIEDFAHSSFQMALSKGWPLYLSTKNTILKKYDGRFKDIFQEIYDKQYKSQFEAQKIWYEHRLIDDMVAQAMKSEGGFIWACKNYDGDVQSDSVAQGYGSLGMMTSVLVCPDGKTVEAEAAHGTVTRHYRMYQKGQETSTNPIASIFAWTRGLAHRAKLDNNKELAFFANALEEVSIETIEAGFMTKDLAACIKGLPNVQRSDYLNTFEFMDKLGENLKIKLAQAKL
Nature of the assay: 2-HG cell-based inhibition assay, U87MG IDH1R132L_R119P cis. The following applies: Cell line construct U87MG IDH1R132L_R119P cis; 2-HG by LC-MS. The procedure:
as §1, §2, §3, §4, §5

The target of the next assay is T3, IDH1R132H_R119P cis (Homo sapiens, UniProt O75874, R119P/R132H).
T3 construct: expressed in transfected cells; host or cells: U-87 MG (ATCC HTB-14)
T3 sequence (O75874 whole entry R119P/R132H): as the sequence (O75874 whole entry R119P/R132L) above, with L132H counted along it
Nature of the assay: 2-HG cell-based inhibition assay, U87MG IDH1R132H_R119P cis. The following applies: Cell line construct U87MG IDH1R132H_R119P cis; 2-HG by LC-MS. The procedure: as §1, §2, §3, §4, §5

A further assay addresses T4, IDH1R132L_D279N cis (Homo sapiens, UniProt O75874, D279N/R132L).
T4 construct: expressed in transfected cells; host or cells: U-87 MG (ATCC HTB-14)
Nature of the assay: 2-HG cell-based inhibition assay, U87MG IDH1R132L_D279N cis. The following applies: Cell line construct U87MG IDH1R132L_D279N cis; 2-HG by LC-MS. As for the experimental part: as §1, §2, §3, §4, §5

Assay [1] addresses T5, R132C_S280F mutant IDH1 (Homo sapiens, UniProt O75874, R132C/S280F).
T5 construct: myc; expressed in transfected cells; host or cells: Ba/F3 (DSMZ ACC 300), stably transfected
Nature of the assay: 2-HG cell-based inhibition assay, U87MG R132C_S280F. As to conditions: Cell line construct U87MG R132C_S280F; 2-HG by LC-MS. As for the experimental part: as §1, §2, §3, §4, §5

Assay [2] concerns the target T6, R132H mutant IDH1 (Homo sapiens, UniProt O75874, R132H).
T6 construct: myc; expressed in transfected cells; host or cells: Ba/F3 (DSMZ ACC 300), stably transfected
Nature of the assay: 2-HG cell-based inhibition assay, Ba/F3 R132H. The following applies: Cell line construct Ba/F3 R132H; 2-HG in conditioned media by LC-MS. The procedure:
as §1, §3
Ba/F3 cells are transfected with DNA constructs encoding IDH1R132H-myc, IDH1R132H_S280E-myc, or IDH1R132C_S280E-myc constructs using NEON Transfection system (Life Technologies, MPK10025) and isolated using Puromycin (2 μg/mL) or Blasticidin (10 μg/mL). Stably transfected lines are used for inhibitor assays. […] Cells are treated with serial dilutions of the desired compounds in standard growth media. Plates are incubated in a mammalian cell culture incubator (humidified, 37° C., 5% CO2) for the desired time (72 or 96 hours). Following the incubation period, conditioned media from each well is collected for 2-HG analysis by LC-MS.
LC-MS metabolite analysis of conditioned media and cell lysates. The effect of inhibitors on the concentrations of 2-HG are determined by liquid chromatography-mass spectrometry (LC-MS) analysis of cell lysates or conditioned media using either a derivatization method or an ion-pairing method as described below.
For the derivatization LC-MS method, calibration curves are prepared by spiking 2-HG and α-KG into cell culture media and cell lysis buffer respectively. […]

Assay [3] concerns the target T7, R132H_S280F mutant IDH1 (Homo sapiens, UniProt O75874, R132H/S280F).
T7 construct: myc; expressed in transfected cells; host or cells: Ba/F3 (DSMZ ACC 300), stably transfected
Nature of the assay: 2-HG cell-based inhibition assay, U87MG R132H_S280F. The following applies: Cell line construct U87MG R132H_S280F; 2-HG by LC-MS. As for the experimental part:
as §1, §2, §3, §4, §5

Assay [4] concerns the target T5, R132C_S280F mutant IDH1. Nature of the assay: 2-HG cell-based inhibition assay, Ba/F3 R132C_S280F. As to conditions: Cell line construct Ba/F3 R132C_S280F; 2-HG in conditioned media by LC-MS.
For another assay, the target named is T8, IDH1R132L_G289D cis (Homo sapiens, UniProt O75874, G289D/R132L).
T8 construct: expressed in transfected cells; host or cells: U-87 MG (ATCC HTB-14)
T8 sequence (O75874 whole entry R132L/G289D): as the sequence (O75874 whole entry R119P/R132L) above, with P119R, G289D counted along it
Nature of the assay: 2-HG cell-based inhibition assay, U87MG IDH1R132L_G289D cis. The following applies: Cell line construct U87MG IDH1R132L_G289D cis; 2-HG by LC-MS. The procedure: as §1, §2, §3, §4, §5

The target in the next assay is T9, IDH1R132H_D279N cis (Homo sapiens, UniProt O75874, D279N/R132H).
T9 construct: expressed in transfected cells; host or cells: U-87 MG (ATCC HTB-14)
T9 sequence (O75874 whole entry R132H/D279N): as the sequence (O75874 whole entry R119P/R132L) above, with P119R, L132H, D279N counted along it
Nature of the assay: 2-HG cell-based inhibition assay, U87MG IDH1R132H_D279N cis. The following applies: Cell line construct U87MG IDH1R132H_D279N cis; 2-HG by LC-MS. As for the experimental part: as §1, §2, §3, §4, §5

Another assay has as its target T10, IDH1R132C_G289D cis (Homo sapiens, UniProt O75874, G289D/R132C).
T10 construct: expressed in transfected cells; host or cells: U-87 MG (ATCC HTB-14)
Nature of the assay: 2-HG cell-based inhibition assay, U87MG IDH1R132C_G289D cis. As to conditions: Cell line construct U87MG IDH1R132C_G289D cis; 2-HG by LC-MS. The procedure:
as §1, §2, §3, §4, §5

The target of the next assay is T11, IDH1R132L_H315D cis (Homo sapiens, UniProt O75874, H315D/R132L).
T11 construct: expressed in transfected cells; host or cells: U-87 MG (ATCC HTB-14)
T11 sequence (O75874 whole entry R132L/H315D): as the sequence (O75874 whole entry R119P/R132L) above, with P119R, H315D counted along it
Nature of the assay: 2-HG cell-based inhibition assay, U87MG IDH1R132L_H315D cis. The following applies: Cell line construct U87MG IDH1R132L_H315D cis; 2-HG by LC-MS. The procedure: as §1, §2, §3, §4, §5

Assay [5] has as its target T7, R132H_S280F mutant IDH1. Nature of the assay: 2-HG cell-based inhibition assay, Ba/F3 R132H_S280F. As to conditions: Cell line construct Ba/F3 R132H_S280F; 2-HG in conditioned media by LC-MS.
The next assay addresses T12, IDH1R132C_G131A cis (Homo sapiens, UniProt O75874, G131A/R132C).
T12 construct: expressed in transfected cells; host or cells: U-87 MG (ATCC HTB-14)
Nature of the assay: 2-HG cell-based inhibition assay, U87MG IDH1R132C_G131A cis. The following applies: Cell line construct U87MG IDH1R132C_G131A cis; 2-HG by LC-MS. The procedure:
as §1, §2, §3, §4, §5

Assay [6] concerns the target T6, R132H mutant IDH1. Nature of the assay: 2-HG cell-based inhibition assay, U87MG R132H. The following applies: Cell line construct U87MG R132H; 2-HG by LC-MS. The procedure: as §1, §2, §3, §4, §5
The next assay deals with T13, IDH1R132L_S280F cis (Homo sapiens, UniProt O75874, R132L/S280F).
T13 construct: expressed in transfected cells; host or cells: U-87 MG (ATCC HTB-14)
T13 sequence (O75874 whole entry R132L/S280F): as the sequence (O75874 whole entry R119P/R132L) above, with P119R, S280F counted along it
Nature of the assay: 2-HG cell-based inhibition assay, U87MG IDH1R132L_S280F cis. As to conditions: Cell line construct U87MG IDH1R132L_S280F cis; 2-HG by LC-MS. As for the experimental part: as §1, §2, §3, §4, §5

The target of the next assay is T14, IDH1R132C_D279N cis (Homo sapiens, UniProt O75874, D279N/R132C).
T14 construct: expressed in transfected cells; host or cells: U-87 MG (ATCC HTB-14)
T14 sequence (O75874 whole entry R132C/D279N): as the sequence (O75874 whole entry R119P/R132L) above, with P119R, L132C, D279N counted along it
Nature of the assay: 2-HG cell-based inhibition assay, U87MG IDH1R132C_D279N cis. As to conditions: Cell line construct U87MG IDH1R132C_D279N cis; 2-HG by LC-MS. As for the experimental part:
as §1, §2, §3, §4, §5

In the next assay the target is T15, IDH1R132H_G131A cis (Homo sapiens, UniProt O75874, G131A/R132H).
T15 construct: expressed in transfected cells; host or cells: U-87 MG (ATCC HTB-14)
T15 sequence (O75874 whole entry G131A/R132H): as the sequence (O75874 whole entry R119P/R132L) above, with P119R, G131A, L132H counted along it
Nature of the assay: 2-HG cell-based inhibition assay, U87MG IDH1R132H_G131A cis. The following applies: Cell line construct U87MG IDH1R132H_G131A cis; 2-HG by LC-MS. The procedure: as §1, §2, §3, §4, §5

A further assay concerns the target T16, IDH1R132C_H315D cis (Homo sapiens, UniProt O75874, H315D/R132C).
T16 construct: expressed in transfected cells; host or cells: U-87 MG (ATCC HTB-14)
Nature of the assay: 2-HG cell-based inhibition assay, U87MG IDH1R132C_H315D cis. The following applies: Cell line construct U87MG IDH1R132C_H315D cis; 2-HG by LC-MS. As for the experimental part: as §1, §2, §3, §4, §5

In a further assay the target is T17, IDH1R132C_R119P cis (Homo sapiens, UniProt O75874, R119P/R132C).
T17 construct: expressed in transfected cells; host or cells: U-87 MG (ATCC HTB-14)
T17 sequence (O75874 whole entry R119P/R132C): as the sequence (O75874 whole entry R119P/R132L) above, with L132C counted along it
Nature of the assay: 2-HG cell-based inhibition assay, U87MG IDH1R132C_R119P cis. As to conditions: Cell line construct U87MG IDH1R132C_R119P cis; 2-HG by LC-MS. As for the experimental part:
as §1, §2, §3, §4, §5

Another assay deals with T18, IDH1R132H_H315D cis (Homo sapiens, UniProt O75874, H315D/R132H).
T18 construct: expressed in transfected cells; host or cells: U-87 MG (ATCC HTB-14)
T18 sequence (O75874 whole entry R132H/H315D): as the sequence (O75874 whole entry R119P/R132L) above, with P119R, L132H, H315D counted along it
Nature of the assay: 2-HG cell-based inhibition assay, U87MG IDH1R132H_H315D cis. As to conditions: Cell line construct U87MG IDH1R132H_H315D cis; 2-HG by LC-MS. As for the experimental part:
as §1, §2, §3, §4, §5

As a reminder, the IC50 is the midpoint of a concentration-inhibition curve. Low readings indicate higher potency, high ones lower potency.

T6 sequence (O75874 whole entry R132H): as the sequence (O75874 whole entry R119P/R132L) above, with P119R, L132H counted along it
T7 sequence (O75874 whole entry R132H/S280F): as the sequence (O75874 whole entry R119P/R132L) above, with P119R, L132H, S280F counted along it
T5 sequence (O75874 whole entry R132C/S280F): as the sequence (O75874 whole entry R119P/R132L) above, with P119R, L132C, S280F counted along it
T12 sequence (O75874 whole entry G131A/R132C): as the sequence (O75874 whole entry R119P/R132L) above, with P119R, G131A, L132C counted along it
T10 sequence (O75874 whole entry R132C/G289D): as the sequence (O75874 whole entry R119P/R132L) above, with P119R, L132C, G289D counted along it
T4 sequence (O75874 whole entry R132L/D279N): as the sequence (O75874 whole entry R119P/R132L) above, with P119R, D279N counted along it
T16 sequence (O75874 whole entry R132C/H315D): as the sequence (O75874 whole entry R119P/R132L) above, with P119R, L132C, H315D counted along it
T1 sequence (O75874 whole entry G131A/R132L): as the sequence (O75874 whole entry R119P/R132L) above, with P119R, G131A counted along it

For the molecule `C=CC(=O)N1CCN([C@@H](CC2CC2)c2ccc([C@H](C)Nc3ncc4c(n3)N(CC)C(=O)OC4)cc2)CC1` [Compound A, 7-[[(1S)-1-[4-[(1S)-2-cyclopropyl-1-(4-prop-2-enoylpiperazin-1-yl)ethyl]phenyl]ethyl]amino]-1-ethyl-4H-pyrimido[4,5-d][1,3]oxazin-2-one], the IC50 at IDH1R132L_G131A cis came out at 64.5 nM; against IDH1R132L_R119P cis it was 89.7 nM; on IDH1R132H_R119P cis, 2.52 nM; at IDH1R132L_D279N cis, 645 nM; on R132C_S280F mutant IDH1 [1], 12.5 nM; against R132H mutant IDH1 [2], 0.11 nM. Further, the half-maximal inhibitory concentration (IC50) on R132H_S280F mutant IDH1 [3] is 2.58 nM; against R132C_S280F mutant IDH1 [4], 1.53 nM; on IDH1R132L_G289D cis it was 29.4 nM; at IDH1R132H_D279N cis it was 13.8 nM; at IDH1R132C_G289D cis, 23.5 nM; at IDH1R132L_H315D cis, 5.07 nM. Also, the IC50 is 1.13 nM at R132H_S280F mutant IDH1 [5]; 25.6 nM at IDH1R132C_G131A cis; 0.32 nM against R132H mutant IDH1 [6]; 179 nM against IDH1R132L_S280F cis; 102 nM on IDH1R132C_D279N cis; 5.89 nM at IDH1R132H_G131A cis. The results for the 50% inhibitory concentration (IC50) against IDH1R132C_H315D cis, on IDH1R132C_R119P cis and against IDH1R132H_H315D cis were 1.33 nM, 10.5 nM and 1.49 nM, respectively.

Values taken from patent US20230071978A1, “METHOD FOR TREATING IDH1 INHIBITOR-RESISTANT SUBJECTS” (Eli Lilly and Company, priority 2020, published 2023).
